{
  "source": "patent EP4674418A1",
  "about": "“SOLUTION, FREEZE-DRIED FORMULATION, FREEZE-DRIED F[…] PACKAGE, INJECTION, AND INJECTION PREPARATION METHOD” (Ascentawits Pharmaceuticals, Ltd., priority 2023, dated 2024)",
  "key": {"[1]": {"test": "Solubility experiment of TH-302 (saturated solution method, HPLC)", "assay_type": "physicochemical", "conditions": "thermodynamic from solid", "method": "The solubility is measured in an experiment by the saturated solution method; that is, the solid TH-302 was directly charged into the solvent until insoluble matter or turbidity appears. After clarification for a period of time, the solution was directly filtered. The clarified filtrate was taken directly for determination of the concentration of TH-302. The resulting concentration is exactly the solubility of TH-302 in this solvent system. Please refer to Tables 1, 2, and 3 for specific solubility data.\nFor the method for measuring the concentration of TH-302 (mg/ml), please refer to the HPLC method described in the patent WO2008083101A1 owned by Threshold Pharmaceuticals Inc. (see Example 2. An Ethanol Formulation of TH302, for details); and the external standard method was used for quantification."}, "[2]": {"conditions": "concentrated injection with ethanol, dimethlyacetamide, polysorbate 80; mainly induced by dimethlyacetamide; WO2015013448A1; cited from earlier work"}, "[3]": {"test": "Freeze-thaw cycle stability of freeze-dried formulations", "assay_type": "physicochemical", "conditions": "TH-302 active pharmaceutical ingredient used for the two batches", "method": "The freeze-thaw test was to place the sample in the dark at (-20°C±5°C) for 2 days, and at (25°C±5°C) for another 2 days, as a cycle. The HPLC purity of TH-302 in the freeze-dried samples was determined. Table 32: HPLC purity test data of TH-302 active pharmaceutical ingredient, two batches of prepared freeze-dried formulations, and the freeze-dried formulations after three freeze-thaw cycles (%)"}, "[4]": {"test": "Saturated solubility of the drug in D5W solution under strong shaking", "assay_type": "physicochemical", "conditions": "5% glucose solution (D5W), saline or isotonic, thermodynamic from solid, shaken 2 minutes, filtered, room temperature 24 hours", "method": "The TH-302 sample was weighed accurately in an amount of about 60 mg, placed in a transparent vial, and added with 6 mL of 5% glucose solution (D5W). The resulting solution was shaken vigorously for 2 minutes to obtain a solubility- stock solution. It was observed that the solubility-stock solution contained insoluble substances. Thus, the solubility- stock solution was filtered and then became clear. […] This value was exactly the saturated solubility of the drug in D5W solution."}},
  "note": "Read-outs that look alike come from different tables or passages of the source.",
  "data": [
    {"smiles": "Cn1c(COP(=O)(NCCBr)NCCBr)cnc1[N+](=O)[O-]", "note": "[TH-302]", "values": [
      {"measurement": "solubility", "setting": "[1]; 1% N,N-dimethylacetamide aqueous solution (volume), water, 1%N,N-dimethlyacetamide aqueous solution (volume), read-out: Solubility", "result": 8050, "unit": "µg/mL"},
      {"measurement": "solubility", "setting": "[1]; 1% ethanol aqueous solution (volume), water, read-out: Solubility", "result": 6580, "unit": "µg/mL"},
      {"measurement": "solubility", "setting": "[1]; 1% polyethylene glycol aqueous solution (volume), water, read-out: Solubility", "result": 6810, "unit": "µg/mL"},
      {"measurement": "solubility", "setting": "[1]; 20% ethanol aqueous solution (volume), aqueous with cosolvent or surfactant or cyclodextrin, read-out: Solubility", "result": 8400, "unit": "µg/mL"},
      {"measurement": "solubility", "setting": "[1]; aqueous with cosolvent or surfactant or cyclodextrin, 1%Tween 80 aqueous solution (volume), read-out: Solubility", "result": 7210, "unit": "µg/mL"},
      {"measurement": "solubility", "setting": "[1]; aqueous with cosolvent or surfactant or cyclodextrin, 20% tert-butanol aqueous solution, volume ratio, commercial TH-302, read-out: Solubility", "result": 10000, "unit": "µg/mL"},
      {"measurement": "solubility", "setting": "[1]; aqueous with cosolvent or surfactant or cyclodextrin, 30% tert-butanol in water, mass ratio, TH-302 synthesized by the applicants, read-out: Solubility", "result": 42000, "unit": "µg/mL"},
      {"measurement": "solubility", "setting": "[1]; aqueous with cosolvent or surfactant or cyclodextrin, 40% tert-butanol aqueous solution, volume ratio, commercial TH-302, read-out: Solubility", "result": "> 40000", "unit": "µg/mL"},
      {"measurement": "solubility", "setting": "[1]; organic solvent or mixture, 60% tert-butanol in water, mass ratio, TH-302 synthesized by the applicants, read-out: Solubility", "result": 146000, "unit": "µg/mL"},
      {"measurement": "solubility", "setting": "[1]; organic solvent or mixture, 70% tert-butanol in water, mass ratio, TH-302 synthesized by the applicants, read-out: Solubility", "result": 165000, "unit": "µg/mL"},
      {"measurement": "solubility", "setting": "[1]; organic solvent or mixture, 75% tert-butanol in water, mass ratio, TH-302 synthesized by the applicants, read-out: Solubility", "result": 151000, "unit": "µg/mL"},
      {"measurement": "solubility", "setting": "[1]; organic solvent or mixture, 80% tert-butanol aqueous solution, volume ratio, commercial TH-302, read-out: Solubility", "result": 88500, "unit": "µg/mL"},
      {"measurement": "solubility", "setting": "[1]; organic solvent or mixture, 80% tert-butanol in water, mass ratio, TH-302 synthesized by the applicants, read-out: Solubility", "result": 143000, "unit": "µg/mL"},
      {"measurement": "solubility", "setting": "[1]; organic solvent or mixture, 90% tert-butanol aqueous solution, volume ratio, commercial TH-302, read-out: Solubility", "result": 76400, "unit": "µg/mL"},
      {"measurement": "solubility", "setting": "[1]; organic solvent or mixture, 90% tert-butanol in water, mass ratio, TH-302 synthesized by the applicants, read-out: Solubility", "result": 66600, "unit": "µg/mL"},
      {"measurement": "solubility", "setting": "[1]; organic solvent or mixture, 90% tert-butanol/10% ethanol, volume ratio, commercial TH-302, read-out: Solubility", "result": 10700, "unit": "µg/mL"},
      {"measurement": "solubility", "setting": "[1]; organic solvent or mixture, 95% tert-butanol aqueous solution, volume ratio, commercial TH-302, read-out: Solubility", "result": 32300, "unit": "µg/mL"},
      {"measurement": "solubility", "setting": "[1]; organic solvent or mixture, 95% tert-butanol in water, mass ratio, TH-302 synthesized by the applicants, read-out: Solubility", "result": 36800, "unit": "µg/mL"},
      {"measurement": "solubility", "setting": "[1]; organic solvent or mixture, 95% tert-butanol/5% ethanol, volume ratio, commercial TH-302, read-out: Solubility", "result": 9980, "unit": "µg/mL"},
      {"measurement": "solubility", "setting": "[1]; organic solvent or mixture, 100% tert-butanol, TH-302 synthesized by the applicants, read-out: Solubility", "result": 11800, "unit": "µg/mL"},
      {"measurement": "solubility", "setting": "[1]; organic solvent or mixture, tert-butanol, commercial TH-302, read-out: Solubility", "result": 8980, "unit": "µg/mL"},
      {"measurement": "solubility", "setting": "[1]; pH 2, simulated gastric fluid, pH2, HCl solution, read-out: Solubility", "result": 6940, "unit": "µg/mL"},
      {"measurement": "solubility", "setting": "[1]; pH 4, aqueous buffer, pH4, phthalate buffer solution, read-out: Solubility", "result": 7220, "unit": "µg/mL"},
      {"measurement": "solubility", "setting": "[1]; pH 6, aqueous buffer, pH6, phosphate buffer solution, read-out: Solubility", "result": 5810, "unit": "µg/mL"},
      {"measurement": "solubility", "setting": "[1]; pH 7, aqueous buffer, pH7, phosphate buffer solution, read-out: Solubility", "result": 5870, "unit": "µg/mL"},
      {"measurement": "solubility", "setting": "[1]; pH 8, aqueous buffer, pH8, phosphate buffer solution, read-out: Solubility", "result": 5940, "unit": "µg/mL"},
      {"measurement": "solubility", "setting": "[1]; pH 10, aqueous buffer, pH10, borate buffer solution, read-out: Solubility", "result": 6070, "unit": "µg/mL"},
      {"measurement": "solubility", "setting": "[1]; tert-butanol-water mixed solvent, aqueous with cosolvent or surfactant or cyclodextrin, summary statement, maximum reached, read-out: solubility in the tert-butanol-water mixed solvent system", "result": "≥ 160000", "unit": "µg/mL"},
      {"measurement": "TH-302 administration reactions", "setting": "[2]", "result": "lip swelling and urticaria"},
      {"measurement": "HPLC purity", "setting": "[3]", "result": 95.87, "unit": "%"},
      {"measurement": "solubility at 2 min", "setting": "[4]", "result": 7250, "unit": "µg/mL"}
    ]}
  ]
}
